Where a name gives a salt, the structure may show the parent alone.
What was measured:
[1] = test system: glaucoma; settings: clinical trial; Eur. J. Ophthalmol. 1997, 7(1): 35-9; cited from earlier work
[2] = test system: ocular hypertension models of New Zealand White Rabbits; assay: Intraocular pressure lowering test (4), ocular hypertension model (Example 4); type: in vivo; settings: relative to control group
Method: Using New Zealand White Rabbits having body weights of 2 to 3 kg, ocular hypertension models were prepared in accordance with the method of Kurihara, et al. (Jpn. J. Ocular Pharmacology, 4, 62-64(1990)) and the intraocular pressure lowering action of the test compounds was investigated.
Described specifically, the rabbits were maintained under general anesthesia and their intraocular pressure was measured using a tonometer (“Alcon Applanation Pneumatonography”; manufactured by Alcon). After instillation of local anesthetics into the eyes of the rabbits, 0.1 ml of a 5% sodium chloride solution were injected into their vitreous bodies through a 30 gauge needle. An increase in the intraocular pressure was confirmed 30 minutes after injection, followed by administration of 50 μl of an eye drop solution containing the test compound. Their intraocular pressure was then measured for 2 hours at intervals of 30 minutes (single administration test).
An ocular hypertension model was made as in Example 1. After confirmation of an increase in the intraocular pressure, 50 μl of a test compound 1 was instilled to the eyes, followed by application of the same amount of a test compound 2 into the eyes after 5 minutes. After this second administration, the intraocular pressure was measured for 2 hours at intervals of 1 hour. Intraocular pressure lowering was determined by the below-described equation. Decrease in intraocular pressure (mmHg)=(intraocular pressure after instillation of a compound group−intraocular pressure before instillation of the compound group)−(intraocular pressure after instillation of a control group−intraocular pressure before instillation of the control group)
The term “control group” in the above-described formula means a group to which physiological saline was administered to the eyes instead of each of the test compound 1 and test compound 2. Groups other than this control group are a compound group.
Also in this Example, the same test compounds as described in Example 1 were employed.

[3] = test system: intraocular pressure of New Zealand White Rabbits; assay: Intraocular pressure lowering test (3), change ratio of intraocular pressure (Example 3); type: in vivo; settings: 50 μl each, four hours after second administration
Method: Using a tonometer (“Alcon Applanation Pneumatonography; manufactured by Alcon), the intraocular pressure of each of New Zealand White Rabbits having body weights of 2 to 3 kg was measured (without anesthesia), followed by administration of 50 μl of a test compound in the form of eye drops. The intraocular pressure was then measured for 4 hours at intervals of one hour (single administration test).
After the measurement of the intraocular pressure as in Example 2, 50 μl of a solution of test compound 1 was instilled into the eyes, followed by administration of the same amount of the solution of test compound 2 after 5 minutes. Four hours after the second administration, the intraocular pressure was measured and the change ratio of the intraocular pressure was determined by the below-described equation: The change ratio of intraocular pressure (%)=[(intraocular pressure after administration of eye drops−intraocular pressure before administration of eye drops)/intraocular pressure before administration of eye drops]×100.
In this Example, the same test compounds as Example 1 were employed. The results are shown below in Tables 1 and 2.

CCCCC(=O)N(Cc1ccc(-c2ccccc2-c2nnn[nH]2)cc1)[C@H](C(=O)O)C(C)C [CGP-48933]
effect for glaucoma [1]: insufficient

CC(C)(C)NC[C@H](O)COc1nsnc1N1CCOCC1 [Compound B, timolol maleate]
Decrease in intraocular pressure (mmHg) ([2]; physiological saline then Compound B (0.25%), time after instillation 0 min): 0.0 ± 1.5 mmHg | Decrease in intraocular pressure (mmHg) ([2]; physiological saline then Compound B (0.25%), time after instillation 60 min): −2.0 ± 3.5 mmHg | Decrease in intraocular pressure (mmHg) ([2]; physiological saline then Compound B (0.25%), time after instillation 120 min): −1.9 ± 3.2 mmHg

CCCc1nc(C(C)(C)O)c(C(=O)O)n1Cc1ccc(-c2ccccc2-c2nnn[nH]2)cc1 [Compound A]
Decrease in intraocular pressure (mmHg) ([2]; Compound A (1%) then physiological saline, time after instillation 0 min): 0.0 ± 2.1 mmHg | Decrease in intraocular pressure (mmHg) ([2]; Compound A (1%) then physiological saline, time after instillation 60 min): −1.7 ± 2.2 mmHg | Decrease in intraocular pressure (mmHg) ([2]; Compound A (1%) then physiological saline, time after instillation 120 min): −3.4 ± 1.7 mmHg | Change ratio (%) of intraocular pressure ([3]; Table 1, Compound A (4%) then physiological saline): 11.4 ± 5.5% | Change ratio (%) of intraocular pressure ([3]; Table 2, Compound A (4%) then physiological saline): 11.5 ± 4.1%

CC(C)OC(=O)CCC/C=C\C[C@@H]1[C@@H](CC[C@@H](O)CCc2ccccc2)[C@H](O)C[C@@H]1O [Compound D, latanoprost]
Change ratio (%) of intraocular pressure ([3]; Table 2, physiological saline then Compound D (0.005%)): 17.2 ± 8.8%

CCCCCCCC(=O)CC[C@@H]1[C@@H](C/C=C\CCCC(=O)OC(C)C)[C@@H](O)C[C@H]1O [Compound C, isopropyl unoprostone]
Change ratio (%) of intraocular pressure ([3]; Table 1, physiological saline then Compound C (0.12%)): −2.4 ± 9.1%
